Source: PubChem BioAssay AID1549 (Sanford-Burnham Center for Chemical Genomics, 2009)
The source made the active and inactive calls. The rule behind the calls is not given here.

The compounds below were run against Influenza A virus M2 proton channel (A/TW/4845/1999 H1N1) (assay: NMR binding screen, influenza A virus M2 proton channel, Kd (AID 1549)). Details: M2 protein.
`OCc1cc(F)cc2c1OCOC2` was tested, and the Kd was > 4 mM (inactive). With `Nc1ncccc1OCc1ccccc1` the Kd was > 4 mM (inactive). With `C=CCc1ccc2c(c1)OCO2` the Kd was > 4 mM (inactive). For `N#Cc1cnn(Cc2ccc(Cl)cc2)c1N`, the Kd was > 4 mM (inactive). With `COc1ccc(C(=O)/C=C2\NC(=S)NC2=O)cc1` the Kd was > 4 mM (inactive). With `O=C(O)c1ccc2occc2c1` the Kd was > 4 mM (inactive). `Cc1c(C)c2c(c(C)c1O)CCC(C)(CCCC(C)CCCC(C)CCCC(C)C)O2` (stereo not given) was tested, and the Kd was > 4 mM (inactive). In the case of `CC(=O)Oc1ccc2c(c1OC(C)=O)OCC1(O)Cc3c(cc(OC(C)=O)c(OC(C)=O)c3OC(C)=O)C21` (stereo not given), the Kd was > 4 mM (inactive). For `Nc1c(N2CCCC2)cnn(-c2ccccc2)c1=O`, the Kd was > 4 mM (inactive). For `Cc1ccnc(NS(=O)(=O)c2ccccc2)n1`, the Kd was > 4 mM (inactive). With `Cc1nc(SCC(=O)c2c[nH]c3ccccc23)n[nH]1` the Kd was > 4 mM (inactive). `Cc1nnc(NCc2cccnc2)[nH]c1=O` was tested, and the Kd was > 4 mM (inactive). In the case of `CC1NC(C(=O)O)Cc2c1[nH]c1ccccc21` (stereo not given), the Kd was > 4 mM (inactive). `O=C(O)CSc1nc2ccccc2c(=O)[nH]1` was tested, and the Kd was > 4 mM (inactive). With `O=C1CCN(c2ccccc2)N1` the Kd was > 4 mM (inactive). With `O=C(Nc1cccnc1)c1cccs1` the Kd was > 4 mM (inactive). With `O=C(O)c1cccc2c1OCC2` the Kd was > 4 mM (inactive). `O=C1NC(=O)C(Cc2cccs2)C(=O)N1` was tested, and the Kd was > 4 mM (inactive). With `O=C(O)C1CNc2ccccc2O1` (stereo not given) the Kd was > 4 mM (inactive). With `Cc1nc2ccccc2c(=O)n1NC(=O)Nc1ccccc1` the Kd was > 4 mM (inactive). With `COc1ccc2c(c1O)-c1c(OC)c(OC)cc3c1[C@H](C2)N(C)CC3` the Kd was > 4 mM (inactive). For `COc1cc(C(=S)N2CCC(C(N)=O)CC2)ccc1O`, the Kd was > 4 mM (inactive). `COC(=O)[C@@H]1OC(=O)C2OC23[C@@]1(C)CCC1[C@]2(C)C(C[C@H](O)[C@]13C)C(C)(C)[C@H](OC(C)=O)C[C@@H]2OC(C)=O` (stereo not given in full) was tested, and the Kd was > 4 mM (inactive). For `NC1=NC(=O)C(CC(=O)Nc2ccccc2F)S1` (stereo not given), the Kd was > 4 mM (inactive). `CN(C)C(=O)Oc1cccc(-c2nnco2)c1` was tested, and the Kd was > 4 mM (inactive). For `O=c1cnnc(NCc2ccc(F)cc2)[nH]1`, the Kd was > 4 mM (inactive). For `CC(C)=NNC(=O)c1ccccc1`, the Kd was > 4 mM (inactive). In the case of `Cc1ccc2[nH]cc(CCN)c2c1`, the Kd was > 4 mM (inactive). `OCc1ccc2c(c1)OCCCO2` was tested, and the Kd was > 4 mM (inactive). For `O=C(CN1CCOCC1)Nc1cccc(Br)c1`, the Kd was > 4 mM (inactive). `O=C1CSC(=Nc2cccc(C(=O)O)c2)N1` was tested, and the Kd was > 4 mM (inactive). `CNc1nc(SC)nc(N2CCOCC2)n1` was tested, and the Kd was > 4 mM (inactive). `COC1=CC(C)[C@@H]2C[C@H]3OC(=O)C[C@H]4C(C)=C(OC)C(=O)C([C@@]34C)[C@@]2(C)C1=O` (stereo not given in full) was tested, and the Kd was > 4 mM (inactive). `O=C(O)Cn1cnc2ccccc2c1=O` was tested, and the Kd was > 4 mM (inactive). In the case of `CC(=O)c1ccc(Cc2cnc(N)s2)cc1`, the Kd was > 4 mM (inactive). In the case of `Cc1ccccc1CSc1nnc(C)n1N`, the Kd was > 4 mM (inactive). `Cc1n[nH]c(C)c1-c1ccccc1C(=O)O` was tested, and the Kd was > 4 mM (inactive). For `O=P(O)(Cc1ccccc1)c1ccccc1`, the Kd was > 4 mM (inactive). `CN(C)C(=O)Nc1ccc2c(c1)nnn2C` was tested, and the Kd was > 4 mM (inactive). In the case of `Cc1cc(NC(=O)Cc2cccs2)no1`, the Kd was > 4 mM (inactive). In the case of `O=S(=O)(NCc1ccco1)N1CCOCC1`, the Kd was > 4 mM (inactive). With `Cc1cc(=O)n(C(N)=S)[nH]1` the Kd was > 4 mM (inactive). In the case of `O=C(c1ccc(Cl)c(F)c1F)N1CCCC1`, the Kd was > 4 mM (inactive). `CCC(=O)NC(=S)Nc1ccc(O)cc1` was tested, and the Kd was > 4 mM (inactive). In the case of `Nc1scc[n+]1CC(=O)[O-]`, the Kd was > 4 mM (inactive). With `NC(=O)CNC(=O)c1ccc2ccccc2n1` the Kd was > 4 mM (inactive). In the case of `CC(C)NC(=O)c1nc2ccccc2s1`, the Kd was > 4 mM (inactive). `COC(=O)c1cncn1C` was tested, and the Kd was > 4 mM (inactive). In the case of `O=C1CCCN1c1ccc(S(=O)O)cc1`, the Kd was > 4 mM (inactive). In the case of `CC(C)(C)NC(=O)N1CCC(C(N)=O)CC1`, the Kd was > 4 mM (inactive). For `Nc1nc2ccccc2n1CCN1CCCC1`, the Kd was > 4 mM (inactive). For `C[C@@H]1CCC2[C@](C)(CO)[C@@H](O)CC[C@]2(C)[C@@]12CC[C@@](CO)(CCO)O2` (stereo not given in full), the Kd was > 4 mM (inactive). `NC(=O)Cn1cnc(-c2ccc(F)cc2)c1` was tested, and the Kd was > 4 mM (inactive). `O=C(O)Cc1noc2ccccc12` was tested, and the Kd was > 4 mM (inactive). For `Cn1cc(C(=O)N/N=C/c2ccccc2)ccc1=O`, the Kd was > 4 mM (inactive). With `Cc1ccc(SCc2nc(-c3ccncc3)no2)cc1` the Kd was > 4 mM (inactive). In the case of `Cc1cc(C)c(C#N)c(N2CCCC2)n1`, the Kd was > 4 mM (inactive). `CCCCCC1C(=O)CCC1CC(=O)O` (stereo not given) was tested, and the Kd was > 4 mM (inactive). For `O=c1cc(-c2ccccc2)oc2c(O)c(O)ccc12`, the Kd was > 4 mM (inactive). With `O=C(O)/C=C/C(=O)Nc1ccccc1C(F)(F)F` the Kd was > 4 mM (inactive). `Cc1ccccc1N1C(=O)CC(=O)NC1=O` was tested, and the Kd was > 4 mM (inactive). With `O=C1CCCCCN1CO` the Kd was > 4 mM (inactive). In the case of `COc1cc(OC)c(-c2c(OC)cc(OC)cc2OC)c(OC)c1`, the Kd was > 4 mM (inactive). For `Cn1cc(Cl)c(C(=O)Nc2ccc(F)cc2F)n1`, the Kd was > 4 mM (inactive). For `Nc1ccc2nccnc2c1`, the Kd was > 4 mM (inactive). `CC(=O)c1cnc(Nc2nc(C)c3ccccc3n2)nc1C` was tested, and the Kd was > 4 mM (inactive). For `Cn1c2c(c(=O)n(C)c1=O)CN(Cc1ccco1)CN2`, the Kd was > 4 mM (inactive). In the case of `O=CN1CCN(C(=O)c2ccc(F)cc2)CC1`, the Kd was > 4 mM (inactive). For `O=C1COc2ccc(C(=O)c3ccccc3)cc2CN1`, the Kd was > 4 mM (inactive). In the case of `O=C(NCc1ccccc1Cl)c1cnn2cccnc12`, the Kd was > 4 mM (inactive). In the case of `NC1=NC(=O)/C(=C\c2ccco2)S1`, the Kd was > 4 mM (inactive). For `O=C1CSC(=O)N1CN1CCOCC1`, the Kd was > 4 mM (inactive). With `CN1C(=O)/C(=C/c2ccccc2O)NC1=S` the Kd was > 4 mM (inactive). With `Cc1c(N=Cc2ccco2)c(=O)n(-c2ccccc2)n1C` the Kd was > 4 mM (inactive). For `c1ccc(-c2nnc(CNCc3ccco3)o2)cc1`, the Kd was > 4 mM (inactive). For `CCNC(=S)NS(=O)(=O)c1ccccc1`, the Kd was > 4 mM (inactive). With `CCN1CCN(CCCNc2ncnc3nc[nH]c23)CC1` the Kd was > 4 mM (inactive). `Cc1oc(-c2ccccc2)cc1C(=O)O` was tested, and the Kd was > 4 mM (inactive). `CCOC(=O)CSc1nnc(C)c(=O)[nH]1` was tested, and the Kd was > 4 mM (inactive). With `OCC1CCN(Cc2ccccc2)CC1` the Kd was > 4 mM (inactive). In the case of `COc1ccc2nc(SCC(N)=O)[nH]c2c1`, the Kd was > 4 mM (inactive). `O=C(c1ccccc1)c1ccc(N2CCNCC2)cc1` was tested, and the Kd was > 4 mM (inactive). For `CC(C)CCn1cnc2c1c(=O)n(C)c(=O)n2C`, the Kd was > 4 mM (inactive). For `COC(=O)CSc1n[nH]c(N)n1`, the Kd was > 4 mM (inactive). With `NC1=C([N+](=O)[O-])C(=O)c2ccccc21` the Kd was > 4 mM (inactive). With `NNC(=O)c1ccccc1-n1cccc1` the Kd was > 4 mM (inactive). With `Cc1nnc(-n2cnc3ccccc32)c2ccccc12` the Kd was > 4 mM (inactive). In the case of `COc1cccc(N2CCNCC2)c1`, the Kd was > 4 mM (inactive). With `O=C(O)c1ccc(N2CCOCC2)cc1` the Kd was > 4 mM (inactive). `N/N=C/c1cccnc1` was tested, and the Kd was > 4 mM (inactive).
